Experimental data as given in US8084478B2, “Substituted 5- phenylamino- 1, 3, 4-oxadiazol-2-ylcarbonylamino-4-phenoxy-cyclohexane carboxylic acid as inhibitors of acetyl coenzyme A diacylglycerol acyltransferase” (AsstraZeneca AB, priority 2006, dated 2011).

Tests used:
ACAT = ACAT enzyme assay; selectivity for DGAT over ACAT; format: biochemical; conditions: DGAT vs ACAT enzyme assays
Experimental: 3) The ability of compounds to inhibit ACAT can be measured using a modification of the enzyme assay described in Billheimer (1985) Methods in Enzymology, 111, 286-293. The test assesses the ability of a test compound to inhibit the esterification of cholesterol by measuring the amount of radiolabeled cholesteryl oleate formed from radiolabeled oleoyl CoA. Compound was incubated with 10 μg membrane protein and 267 μM cholesterol. After a 5 minute pre-incubation at 37° C. the reaction was started by adding ^14C oleoyl coenzyme A (50 μM final concentration) and incubated at 37° C. for a further 30 minutes. The reaction was stopped by adding 2-propanol:heptane (12:1). Radioactive cholesteryl ester product was separated into the organic phase by adding heptane and 1M carbonate buffer pH 9.5. ACAT activity was quantified by counting aliquots of the upper heptane layer by liquid scintillography.
The selectivity of a compound to inhibit DGAT over inhibition of ACAT may be defined as the ratio of IC50 values generated in the DGAT and ACAT enzyme assays for a particular compound.

human DGAT1 = target: T1, human DGAT1 (Homo sapiens, UniProt O75907); assay: Human Enzyme Assay (DGAT1 activity, 14C oleoyl coenzyme A, insect cell membranes); format: biochemical; conditions: human DGAT1 expressed in sf9 insect cell membranes
T1 construct: made in house; host or cells: Sf9 insect cells, recombinant baculovirus; membrane fraction
T1 sequence (O75907 1-488): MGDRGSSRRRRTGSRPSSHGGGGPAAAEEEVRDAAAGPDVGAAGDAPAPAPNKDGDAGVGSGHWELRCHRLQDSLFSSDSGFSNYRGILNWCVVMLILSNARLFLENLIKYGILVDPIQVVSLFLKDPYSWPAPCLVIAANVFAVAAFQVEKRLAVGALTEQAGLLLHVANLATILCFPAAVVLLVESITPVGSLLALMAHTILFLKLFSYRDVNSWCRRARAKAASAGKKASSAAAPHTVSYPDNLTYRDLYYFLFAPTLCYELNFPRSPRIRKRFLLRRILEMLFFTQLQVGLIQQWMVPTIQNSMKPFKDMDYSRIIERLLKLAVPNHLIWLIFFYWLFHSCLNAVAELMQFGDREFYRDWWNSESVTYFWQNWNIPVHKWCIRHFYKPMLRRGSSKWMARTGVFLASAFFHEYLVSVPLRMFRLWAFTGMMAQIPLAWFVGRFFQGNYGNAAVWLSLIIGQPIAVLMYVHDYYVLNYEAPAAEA
Experimental: The in vitro assay to identify DGAT1 inhibitors uses human DGAT1 expressed in insect cell membranes as the enzyme source (Proc. Natl. Acad. Sci. 1998, 95, 13018-13023). Briefly, sf9 cells were infected with recombinant baculovirus containing human DGAT1 coding sequences and harvested after 48 h. Cells were lysed by sonication and membranes isolated by centrifuging at 28000 rpm for 1 h at 4° C. on a 41% sucrose gradient. The membrane fraction at the interphase was collected, washed, and stored in liquid nitrogen.
DGAT1 activity was assayed by a modification of the method described by Coleman (Methods in Enzymology 1992, 209, 98-102). Compound at 1-10 μM was incubated with 0.4 μg membrane protein, 5 mM MgCl2, and 100 μM 1,2 dioleoyl-sn-glycerol in a total assay volume of 200 μl in plastic tubes. The reaction was started by adding ^14C oleoyl coenzyme A (30 μM final concentration) and incubated at room temperature for 30 minutes. The reaction was stopped by adding 1.5 mL 2-propanol:heptane:water (80:20:2). Radioactive triolein product was separated into the organic phase by adding 1 mL heptane and 0.5 mL 0.1 M carbonate buffer pH 9.5. DGAT1 activity was quantified by counting aliquots of the upper heptane layer by liquid scintillography.

O=C(Nc1ccc(O[C@H]2CC[C@H](C(=O)O)CC2)cc1)c1nnc(Nc2ccc(F)cc2)o1 [Example 13, trans-4-{4-[({5-[(4-fluorophenyl)amino]-1,3,4-oxadiazol-2-yl}carbonyl)amino]phenoxy}cyclohexanecarboxylic acid]
selectivity to inhibit DGAT over inhibition of ACAT (ratio of IC50 values in the DGAT and ACAT enzyme assays) (ACAT): 310 fold | IC50 (human DGAT1): 17 nM
